One assay concerns BXPC-3. As to the kind of experiment: Antitumor activity against human BXPC-3 cells incubated for 48 to 72 hrs by MTS Assay. It is filed as functional, cell-based.
Assay [1] relates to HepG2. As to the kind of experiment: Antitumor activity against human HepG2 cells incubated for 72 hrs by SRB calorimetric assay. It is filed as functional, cell-based. The note with it: HepG2, 72 h.
The subject of a further assay is PANC-1. As to the kind of experiment: Antitumor activity against human PANC-1 cells incubated for 48 to 72 hrs by MTS Assay. It is filed as functional, cell-based.
The test system of assay [2] is PC-3. As to the kind of experiment: Antitumor activity against human PC-3 cells incubated for 72 hrs by SRB calorimetric assay. The format is functional, cell-based. The settings on record: PC-3, 72 h.
A further assay concerns Capan-2. As to the kind of experiment: Antitumor activity against human Capan-2 cells incubated for 48 to 72 hrs by MTS Assay. The format is functional, cell-based.
A short description of assay [3]: Inhibition of NO production in LPS stimulated mouse BV-2 cells measured after 24 hrs. The format is functional, cell-based. The settings on record: BV-2, 24 h.
Another assay deals with C-33-A. Kind of assay: Antitumor activity against human C-33-A cells assessed as cell growth inhibition incubated for 5 days by MTT assay. The format is functional, cell-based. The settings on record: 120 h.
The subject of a further assay is SiHa. Kind of assay: Antitumor activity against human SiHa cells assessed as cell growth inhibition incubated for 5 days by MTT assay. The format is functional, cell-based. The note with it: 120 h.
Another assay relates to HT-3. Kind of assay: Antitumor activity against human HT-3 cells assessed as cell growth inhibition incubated for 5 days by MTT assay. The format is functional, cell-based. The settings on record: HT-3, 120 h.
For assay [4], the system named is HeLa. Kind of assay: Antitumor activity against human HeLa cells assessed as cell growth inhibition incubated for 5 days by MTT assay. It is filed as functional, cell-based. The settings on record: 120 h.
The next assay relates to Ca-Ski. As to the kind of experiment: Antitumor activity against human Ca-Ski cells assessed as cell growth inhibition incubated for 5 days by MTT assay. The format is functional, cell-based. The settings on record: 120 h.
In another assay the test system is A549. Kind of assay: Antitumor activity against human A549 cells incubated for 72 hrs by MTT assay. The note with it: A549, 72 h. It is filed as functional, cell-based.
A further assay has as its system MCF7. Kind of assay: Antitumor activity against human MCF7 cells incubated for 72 hrs by MTT assay. It is filed as functional, cell-based. The note with it: MCF7, 72 h.
The subject of the next assay is K562. Kind of assay: Antitumor activity against human K562 cells incubated for 24 hrs by CCK-8 assay. The note with it: K562, 24 h. The format is functional, cell-based.
In a further assay the test system is U-937. Kind of assay: Antitumor activity against human U937 cells. It is filed as functional, cell-based.
For a further assay, the system named is THP-1. Kind of assay: Antitumor activity against human THP1 cells. It is filed as functional, cell-based.
Another assay relates to HCT-116. As to the kind of experiment: Antitumor activity against human HCT116 cells. It is filed as functional, cell-based.
The subject of a further assay is B16. Kind of assay: Antitumor activity against mouse B-16 cells. The format is functional, cell-based.
For a further assay, the system named is HL-60. As to the kind of experiment: Antitumor activity against human HL60 cells. The format is functional, cell-based.
Assay [5] has as its system HeLa. As to the kind of experiment: Antitumor activity against human HeLa cells. The format is functional, cell-based.
In a further assay the test system is HT-29. As to the kind of experiment: Antitumor activity against human HT29 cells. The format is functional, cell-based.
The subject of assay [6] is PC-3. As to the kind of experiment: Antiproliferative activity against human PC3 cells assessed as cell viability incubated for 48 hrs by Cell Counting Kit-8 assay. The format is functional, cell-based. The settings on record: PC-3, 48 h.
The test system of assay [7] is HepG2. Kind of assay: Antiproliferative activity against human HepG2 cells assessed as cell viability incubated for 48 hrs by Cell Counting Kit-8 assay. The settings on record: HepG2, 48 h. The format is functional, cell-based.
The nature of assay [8]: Antiproliferative activity against human U87 cells overexpressing miR-9 assessed as cell viability incubated for 48 hrs by Cell Counting Kit-8 assay. The settings on record: U-87 MG. The format is functional, cell-based, U-87MG ATCC.
The subject of assay [9] is HepG2. Kind of assay: Antiproliferative activity against human HepG2 assessed as cell growth inhibition incubated for 48 hrs by Cell Counting Kit-8 assay. The format is functional, cell-based. The note with it: HepG2, 48 h.
Assay [10] has as its system PC-3. Kind of assay: Antiproliferative activity against human PC-3 assessed as cell growth inhibition incubated for 48 hrs by Cell Counting Kit-8 assay. The format is functional, cell-based. The settings on record: PC-3, 48 h.
A short description of assay [11]: Antiproliferative activity against human U-87 MG assessed as cell growth inhibition incubated for 48 hrs by Cell Counting Kit-8 assay. It is filed as functional, cell-based, U-87MG ATCC.
Assay [12] can be described thus: Inhibition of bovine brain FTase. More on the design: species or system Bos taurus.
Assay [13] concerns PC-3. Kind of assay: Cytotoxicity against human PC-3 cells incubated for 48 hrs by CCK-8 assay. The format is functional, cell-based. The settings on record: PC-3, 48 h.
In assay [14] the test system is HepG2. As to the kind of experiment: Cytotoxicity against human HepG2 cells incubated for 48 hrs by CCK-8 assay. It is filed as functional, cell-based. The note with it: HepG2, 48 h.

This is an account of results in ChEMBL document CHEMBL5247589, “Natural occurrence, bioactivity, and biosynthesis of triene-ansamycins” (Eur J Med Chem, 2022).

Values after ≈ are worked out from the molar mass of the structure shown.

In the case of `CCCC(=O)N[C@H](C)C(=O)O[C@H]1C/C=C/C=C/C=C/[C@H](OC)CC(=O)Nc2cc(O)cc(c2)CC/C=C(/C)[C@H](O)[C@H]1C`, the IC50 in the assay on BXPC-3, with HepG2 [1], in the assay with PANC-1, with PC-3 [2] and with Capan-2 was 2040 nM throughout.
Turning to `CO[C@H]1/C=C/C=C/C=C/C[C@H](O)[C@H](C)[C@@H](OC(=O)[C@@H](C)NC(=O)C2CCCCC2)/C(C)=C\CCc2cc(O)cc(c2)NC(=O)C1`, the IC50 in the assay on BXPC-3, in the assay with PANC-1 and in the assay with Capan-2 was above 10000 nM throughout. For the same compound, the response in [3] was half-maximal at 292 nM (EC50).
On to `CO[C@H]1/C=C/C=C/C=C/C[C@H](OC(=O)[C@@H](C)NC(=O)CCCC(C)C)[C@H](C)[C@@H](O)/C(C)=C\CCc2cc(O)cc(c2)NC(=O)C1`, for which the IC50 with BXPC-3, with PANC-1, in the assay with PC-3 [2] and with Capan-2 was 100 nM in each case.
Take `CO[C@H]1/C=C/C=C/C=C/C[C@H](OC(=O)[C@@H](C)NC(=O)C2CCCCC2)[C@H](C)[C@@H](O)/C(C)=C\CCC2=C(O)C(=O)C=C(NC(=O)C1)C2=O`: the IC50 in the assay on C-33-A, in the assay on SiHa, in the assay with HT-3, in the assay on HeLa [4] and in the assay with Ca-Ski was 70 nM each time.
With `CO[C@H]1/C=C/C=C/C=C/C[C@H](OC(C)=O)[C@H](C)[C@@H](O)/C(C)=C\CCc2cc(O)cc(c2)NC(=O)C1`, the IC50 in the assay with A549, with MCF7 and with K562 was above 10000 nM throughout.
For `CO[C@H]1/C=C/C=C/C=C/C[C@H](OC(=O)C2(NC(=O)C3=CCCCC3)CC2)[C@H](C)[C@@H](O)/C(C)=C\CCc2c(O)c(cc3c2SCC(=O)N3)NC(=O)C1`, the IC50 with U-937, in the assay with THP-1, in the assay with HCT-116, in the assay on B16, with HL-60 and in the assay with HeLa [5] was 300 nM each time. This compound displayed an IC50 with HT-29 of 300 nM.
For `CO[C@@H]1CC(=O)Nc2c(O)c3cc4c2[C@H]1[C@@H](/C=C/C=C/C[C@H](O)[C@H](C)[C@@H](OC(=O)[C@@H](C)NC(=O)C1CCCCC1)/C(C)=C\CC3)O4`, the IC50 (in the assay with PC-3 [6]; with HepG2 [7]; in [8]) was above 10000 nM each time.
With `CO[C@H]1/C=C/C=C/C=C/C[C@H](O)[C@H](C)[C@@H](OC(=O)[C@@H](C)NC(=O)C2CCCCC2)/C(C)=C\CCC2=C(O)C(=O)C=C(NC(=O)C1)C2=O`, the half-inhibitory concentration (IC50) with C-33-A, in the assay with SiHa, in the assay with HT-3, in the assay on HeLa [4] and in the assay on Ca-Ski was 450 nM in each case.
Take `CO[C@@H]1CC(=O)Nc2c(O)c3cc4c2[C@H]1[C@@H](/C=C/C=C/C[C@H](OC(=O)[C@@H](C)NC(=O)C1CCCCC1)[C@H](C)[C@@H](O)/C(C)=C\CC3)O4`: the figures for the half-maximal inhibitory concentration (IC50) (in the assay with HepG2 [9]; with PC-3 [10]; in assay [11]) were 610 nM, 2210 nM and 7010 nM, respectively.
`CO[C@H]1/C=C/C=C/C=C/C[C@H](OC(=O)[C@@H](C)NC(=O)C2=CCCCC2)[C@H](C)[C@@H](O)/C(C)=C\CCc2cc(O)cc(c2O)NC(=O)C1` had an IC50 in assay [12] of 1.2 µg/mL (≈ 1.88 µM).
Consider `CO[C@H]1/C=C/C=C/C=C/C[C@H](OC(=O)[C@@H](C)NC(=O)C2CCCCC2)[C@H](C)[C@@H](O[C@@H]2O[C@H](CO)[C@@H](O)[C@H](O)[C@H]2O)/C(C)=C\CCc2cc(O)cc(c2O)NC(=O)C1`, for which the IC50 in the assay on PC-3 [6] is at least 2020 nM; in the assay with HepG2 [7], at least 2020 nM; in the assay on PC-3 [13], 4380 nM; in assay [8] it was at least 2020 nM; in the assay on HepG2 [14], 2200 nM.
